Reference: ChEMBL document CHEMBL2331167, “Inhibitory effect of novel somatostatin peptide analogues on human cancer cell growth based on the selective inhibition of DNA polymerase β” (Bioorg Med Chem, 2013)
The source made the active and inactive calls. The calls are words filed in the database; no cut-off is given here.

How the values were obtained:
HCT-116 [1] = assay: Cytotoxicity against p53 -/- human HCT116 cells assessed as growth inhibition at 200 uM incubated for 24 hrs by WST-1 assay; format: functional, cell-based
HCT-116 [2] = assay: Cytotoxicity against p53 +/+ human HCT116 cells assessed as growth inhibition at 200 uM incubated for 24 hrs by WST-1 assay; format: functional, cell-based
HCT-116 [3] = assay: Cytotoxicity against p53 +/+ human HCT116 cells assessed as growth inhibition incubated for 24 hrs by WST-1 assay; format: functional; conditions: HCT-116, 24 h, read-out: LD50 (the source's name)

Row | SMILES | growth inhibition (GI) (HCT-116 [1]) | growth inhibition (GI) (HCT-116 [2]) | CC50 (HCT-116 [3])
1 | CC(C)(C)OC(=O)N[C@@H](Cc1ccc(O)cc1)C(=O)N[C@@H](CC(=O)O)C(=O)Nc1cccc2ccccc12 | inactive | inactive | –
2 | CC(C)(C)OC(=O)N[C@@H](Cc1ccc(O)cc1)C(=O)N[C@@H](Cc1ccccc1)C(=O)Nc1cccc2ccccc12 | Active | Active | 30.7 µM
3 | CC(C)[C@H](NC(=O)[C@H](Cc1ccc(O)cc1)NC(=O)OC(C)(C)C)C(=O)Nc1cccc2ccccc12 | Active | Active | –
4 | CC(C)(C)OC(=O)NCCCCC(=O)Nc1cccc2ccccc12 | inactive | inactive | –
5 | CC(C)C[C@H](NC(=O)[C@H](Cc1ccc(O)cc1)NC(=O)OC(C)(C)C)C(=O)Nc1cccc2ccccc12 | Active | Active | –
6 | CC(C)(C)OC(=O)N[C@@H](Cc1ccc(O)cc1)C(=O)N[C@@H](CCC(=O)O)C(=O)Nc1cccc2ccccc12 | inactive | inactive | –
7 | CC(C)(C)OC(=O)NCCC(=O)Nc1cccc2ccccc12 | inactive | inactive | –
8 | CC(C)(C)OC(=O)NCCCCCCC(=O)Nc1cccc2ccccc12 | inactive | inactive | –
